# Results as given in patent US9617256B2 (priority 2007, dated 2017).
# What was measured:
# AECO001 (ATCC25922) = experiment: MIC broth microdilution, AECO001; type: cell-based, E. coli; settings: Escherichia coli, ATCC25922, read-out: MIC AECO001
# In short: (§1)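 Strains were grown overnight at 35° C. on Mueller-Hinton agar, suspended to 0.5 McFarland and diluted to a final 3×10^5–7×10^5 CFU/mL. They were then exposed to 2-fold serial drug dilutions in cation-adjusted Mueller-Hinton broth and incubated 18-24 hours at 35° C.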
# [1] = tested on: ASAU001 (laboratory strain of S. aureus, ATCC29213); experiment: MIC broth microdilution, ASAU001; type: cell-based; settings: Staphylococcus aureus, ATCC29213, read-out: MIC ASAU001
# In short: as §1
# [2] = tested on: APAE006 (strain of P. aeruginosa in which all efflux pumps are inactivated); experiment: microbe, parasite or virus in culture; type: cell-based; settings: Pseudomonas aeruginosa, read-out: MIC APAE006, P. aeruginosa, all efflux pumps inactivated
# In short: (§2)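 CLSI-guided microdilution: bacteria passaged overnight at 35° C. on Mueller-Hinton agar, tested in cation-adjusted broth at a final 3×10^5–7×10^5 CFU/mL across 2-fold drug dilutions, read after 18-24 h at 35° C.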
# [3] = tested on: AABA1060 (clinical isolate of Acinetobacter baumannii); experiment: MIC broth microdilution, AABA1060; type: cell-based; settings: Acinetobacter baumannii, read-out: MIC AABA1060
# In short: as §1
# [4] = tested on: APAE006 in the presence of 8 micrograms per milliliter of polymyxin B nonapeptide; type: cell-based, P. aeruginosa; settings: in the presence of 8 micrograms per milliliter of polymyxin B nonapeptide
# In short: as §2
# AECO001 HSA AGP = experiment: MIC broth microdilution, AECO001 HSA AGP; type: cell-based, E. coli; settings: Escherichia coli
# Experimental: Bacterial isolates were cultivated from −70° C. frozen stocks by overnight passages at 35° C. in ambient air on Mueller-Hinton agar (Beckton Dickinson, Franklin Lakes, N.J.). Clinical isolates tested were obtained from various geographically diverse hospitals in the US and abroad (Focus Diagnostics, Herndon, Va. and JMI, North Liberty, Iowa). Quality control strains were from the American Type Culture Collection (ATCC; Rockville, Md.). Additional primary panel strains were generated using standard molecular biology techniques.
# Minimum Inhibitory Concentrations (MICs) were determined by the broth microdilution method in accordance with the Clinical and Laboratory Standards Institute (CLSI) guidelines. In brief, organism suspensions were adjusted to a 0.5 McFarland standard to yield a final inoculum between 3×10^5 and 7×10^5 colony-forming units (CFU)/mL. Drug dilutions and inocula were made in sterile, cation adjusted Mueller-Hinton Broth (Beckton Dickinson). An inoculum volume of 100 μL was added to wells containing 100 μL of broth with 2-fold serial dilutions of drug. All inoculated microdilution trays were incubated in ambient air at 35° C. for 18-24 hours. […] Performance of the assay was monitored by the use of laboratory quality-control strains and levofloxacin, a compound with a defined MIC spectrum, in accordance with CLSI guidelines.
# *AECO001 is ATCC25922, AECO063 is ATCC25922 bearing an acrAB mutation, APAE001 is ATCC27853, APAE006 is a strain of P. aeruginosa in which all efflux pumps are inactivated, APAE006+PMBN indicates MICs with the indicated strain in the presence of 8 micrograms per milliliter of polymyxin B nonapeptide, AABA1060 is a clinical isolate of Acinetobacter baumannii, ASAU001 is a laboratory strain of S. aureus (ATCC29213).
# [5] = tested on: AECO063 (ATCC25922 bearing an acrAB mutation); experiment: microbe, parasite or virus in culture; type: cell-based, E. coli; settings: Escherichia coli, ATCC25922, read-out: MIC AECO063
# In short: as §1
# APAE001 (ATCC27853) = experiment: MIC broth microdilution, APAE001; type: cell-based, P. aeruginosa; settings: Pseudomonas aeruginosa, ATCC27853, read-out: MIC APAE001, APAE001 is ATCC27853
# In short: as §1
Structure (SMILES),MIC (AECO001 (ATCC25922)) [µg/mL],MIC [1] [µg/mL],MIC [2] [µg/mL],MIC [3] [µg/mL],MIC APAE006 + PMBN [4],MIC (AECO001 HSA AGP) [µg/mL],MIC [5] [µg/mL],MIC (APAE001 (ATCC27853)) [µg/mL]
O=C(N[C@H](C(=O)NO)C1CCCC1)c1ccc(C#Cc2ccc(CN3CCOCC3)cc2)cc1 [Example 66-6],< 2,> 64,< 2,16 to 64,A (MIC's of 2.0 μg/mL or less = A),2 to 16,< 2,16 to 64
"O=C(NC(C(=O)NO)C1CCOCC1)c1ccc(C#Cc2ccc(CN3CCOCC3)cc2)cc1 (stereo not drawn) [Example 67-5, N-[hydroxycarbamoyl-(tetrahydro-pyran-4-yl)-methyl]-4-(4-morpholin-4-ylmethyl-phenylethynyl)-benzamide]",< 2,> 64,< 2,16 to 64,A (MIC's of 2.0 μg/mL or less = A),2 to 16,< 2,2 to 16
O=C(N[C@H](C(=O)NO)c1cccs1)c1ccc(C#Cc2ccc(CN3CCOCC3)cc2)cc1 [Example 67-7],< 2,> 64,< 2,2 to 16,A (MIC's of 2.0 μg/mL or less = A),2 to 16,< 2,2 to 16
O=C(N[C@H](C(=O)NO)c1ccsc1)c1ccc(C#Cc2ccc(CN3CCOCC3)cc2)cc1 [Example 67-8],< 2,> 64,< 2,2 to 16,A (MIC's of 2.0 μg/mL or less = A),2 to 16,< 2,2 to 16
O=C(N[C@H](C(=O)NO)C1CCS(=O)(=O)CC1)c1ccc(C#Cc2ccc(CN3CCOCC3)cc2)cc1 [Example 67-9],2 to 16,> 64,< 2,> 64,A (MIC's of 2.0 μg/mL or less = A),16 to 64,< 2,16 to 64
"O=C(N[C@H](C(=O)NO)C1CC1)c1ccc(C#Cc2ccc(CN3CCOCC3)cc2)cc1 [Example 68-6, N—((S)-cyclopropyl-hydroxycarbamoyl-methyl)-4-(4-morpholin-4-ylmethyl-phenylethynyl)-benzamide]",< 2,> 64,< 2,16 to 64,A (MIC's of 2.0 μg/mL or less = A),2 to 16,< 2,2 to 16
NC[C@H](NC(=O)c1ccc(C#CC#Cc2ccc(CO)cc2)cc1)C(=O)NO [Example 82-2],< 2,16 to 64,< 2,16 to 64,A (MIC's of 2.0 μg/mL or less = A),16 to 64,< 2,< 2
C[C@@H](N)[C@H](NC(=O)c1ccc(C#CC#Cc2ccc(CO)cc2)cc1)C(=O)NO [Example 82-3],< 2,16 to 64,< 2,2 to 16,A (MIC's of 2.0 μg/mL or less = A),16 to 64,< 2,< 2
C[C@@H](N)[C@H](NC(=O)c1ccc(C#CC#Cc2ccccc2)cc1)C(=O)NO [Example 82-4],< 2,2 to 16,< 2,2 to 16,A (MIC's of 2.0 μg/mL or less = A),2 to 16,< 2,2 to 16
C[C@@H](N)[C@H](NC(=O)c1ccc(C#CC#Cc2cccc(F)c2)cc1)C(=O)NO [Example 82-5],< 2,2 to 16,< 2,2 to 16,A (MIC's of 2.0 μg/mL or less = A),2 to 16,< 2,< 2
C[C@@H](O)[C@H](NC(=O)c1ccc(C#CC#Cc2ccc(C(F)(F)F)cc2)cc1)C(=O)NO [Example 82-6],< 2,16 to 64,2 to 16,16 to 64,A (MIC's of 2.0 μg/mL or less = A),2 to 16,< 2,2 to 16
C[C@@H](N)[C@H](NC(=O)c1ccc(C#CC#Cc2ccccc2F)cc1)C(=O)NO [Example 82-7],< 2,2 to 16,< 2,< 2,A (MIC's of 2.0 μg/mL or less = A),2 to 16,< 2,< 2
C[C@@H](N)[C@H](NC(=O)c1ccc(C#CC#Cc2ccc(Cl)cc2)cc1)C(=O)NO [Example 82-8],< 2,> 64,< 2,> 64,A (MIC's of 2.0 μg/mL or less = A),2 to 16,< 2,16 to 64
C[C@@H](N)[C@H](NC(=O)c1ccc(C#CC#Cc2cccc(Cl)c2)cc1)C(=O)NO [Example 82-9],< 2,2 to 16,< 2,2 to 16,A (MIC's of 2.0 μg/mL or less = A),2 to 16,< 2,2 to 16
C[C@@H](N)[C@H](NC(=O)c1ccc(C#CC#Cc2ccccc2Cl)cc1)C(=O)NO [Example 82-10],< 2,2 to 16,< 2,2 to 16,A (MIC's of 2.0 μg/mL or less = A),2 to 16,< 2,2 to 16
C[C@@H](N)[C@H](NC(=O)c1ccc(C#CC#Cc2ccc(OC(F)(F)F)cc2)cc1)C(=O)NO [Example 82-11],2 to 16,16 to 64,2 to 16,16 to 64,A (MIC's of 2.0 μg/mL or less = A),2 to 16,< 2,16 to 64
C[C@@H](N)[C@H](NC(=O)c1ccc(C#CC#Cc2ccc(F)cc2)cc1)C(=O)NO [Example 82-12],< 2,16 to 64,< 2,2 to 16,A (MIC's of 2.0 μg/mL or less = A),2 to 16,< 2,2 to 16
CC(C)(O)[C@H](NC(=O)c1ccc(C#CC#Cc2ccccc2)cc1)C(=O)NO [Example 82-13],< 2,16 to 64,< 2,< 2,A (MIC's of 2.0 μg/mL or less = A),< 2,< 2,< 2
C[C@@H](O)[C@H](NC(=O)c1ccc(C#CC#Cc2ccc(CO)cc2)cc1)C(=O)NO [Example 82-14],< 2,16 to 64,< 2,< 2,A (MIC's of 2.0 μg/mL or less = A),16 to 64,< 2,< 2
CC(C)(O)[C@H](NC(=O)c1ccc(C#CC#Cc2ccc(CO)cc2)cc1)C(=O)NO [Example 82-15],< 2,16 to 64,< 2,< 2,A (MIC's of 2.0 μg/mL or less = A),16 to 64,< 2,< 2
C[C@@H](N)[C@H](NC(=O)c1ccc(C#CC#Cc2ccc(N)cc2)cc1)C(=O)NO [Example 82-16],< 2,16 to 64,< 2,< 2,A (MIC's of 2.0 μg/mL or less = A),2 to 16,< 2,< 2
